Experimental data from US9598361B1, “Amino substituted acetamide derivative” (KING SAUD UNIVERSITY, priority 2016, dated 2017).
Like-named read-outs stand apart in the source and are kept apart here.

Assays:
[1] = tested on: absolute ethanol-induced ulcer; test: Anti-ulcerogenic activity, absolute ethanol-induced ulcer model; type: in vivo, male Wistar rats; conditions: for inhibition in vivo at 100 mg/kg / inhibition in vivo at 50 mg/kg: Rattus norvegicus, po; for score: lesion score 0-5, rats; for inhibition in vivo at 50 mg/kg: read-out: % protection
Experimental: (§1) The biological activities of the investigational compounds (CP1-8) were investigated as follows. Swiss albino mice of both sexes (26-30 g) and male Wistar rats (180-200 g) were purchased from the animal house of King Saud University, KSA. Animals were housed in standard polypropylene cages with wire mesh top and maintained under standard conditions (temperature 23±1.0° C., humidity 55±10%, 12 h light/12 h dark cycle). They were fed a standard pellet diet with water ad libitum and were allowed to adapt to the laboratory environment for one week before experimentation.
Evaluation of the anti-ulcerogenic activity was carried out using absolute ethanol-induced ulcer model as described by Bighettia et al. (2005). Eighteen male Wistar rats were divided into 3 groups each of 6 rats. Group 1 received the vehicle and served as control ulcer, Group 2 received ranitidine (100 mg/kg) and served as standard, and Groups 3 received the target compound at a dose of 50 mg/kg for CP1-7 and a dose of 100 mg/kg for CP8.
Rats of all groups were fasted for 24 h then all medications were administered orally. One hour after treatment, the animals received an oral dose of absolute ethanol (1 ml/200 g) and then sacrificed one hour later, by ether inhalation, the stomachs were rapidly removed, opened along their greater curvature and gently rinsed under running tap water.
Number of lesions in the glandular part of the stomach were measured under an illuminated magnifying microscope (10×). Long lesions were counted and their lengths were measured. Petechial lesions were counted, and then each five petechial lesions were taken as 1 mm of ulcer.
The lesion scores in the mucosal lesions were quantified by the scoring system (0-5) 0=no damage, 1=Local edema and inflammation without ulcers; 2=One ulcer without inflammation; 3=one to two ulcers with inflammation & lesion diameter <1 cm; 4=More than two ulcers with lesion diameter 1-2 cm; 5=Sever ulceration with lesion diameter >2 cm (Morris et al., 1989).
In order to calculate the Ulcer Index (mm), the sum of the total length of long ulcers and petechial lesions in each group of rats was divided by its number. The curative ratio was determined according to the formula: […]

[2] = tested on: liver and kidney functions; test: Effect on liver and kidney functions; type: in vivo, Male Wister rats
Experimental: The effect on liver and kidney functions using the derivatives were investigated as follows. Male Wister rats were divided into 2 groups, each of 10 rats. The 1st group was left as a control and administered the vehicle orally, while the other group was orally administered the synthesized compounds in a dose of 50 mg/kg (for CP 1-7) or a dose of about 100 mg/kg (for CP 8). After the examination period, 6 h after the last dose blood samples were collected from the orbital plexus of rats. Samples were left to clot at room temperature for 30 min then centrifuged at 1000 rpm for 20 min.
The collected sera were used for determination of the activity of both (AST) aspirate aminotransferase and (ALT) alanine aminotransferase as liver markers. In addition, levels of blood urea, serum creatinine were also estimated as kidney markers (Awaad et al., 2013).

[3] = tested on: acetic acid induced colitis; test: Anti-ulcerative colitis activity, acetic acid induced colitis; type: in vivo, rats; conditions: for % Protection of control colitis: Table 5, CP8 100 mg/kg; for inhibition in vivo at 50 mg/kg: Rattus norvegicus, po, 120 h, read-out: % Protection; for Wt/l: colon wet weight/length ratio; for effect versus dexamesathone in reducing all colitis parameters (in words): 50 mg/kg versus dexamesathone 0.1 mg/kg
Experimental: as §1
Groups of animals each of 6 rats were used for assessing the anti-ulcerative colitis activity. The first group received dexamesathone at dose 0.1 mg/kg orally to serve as standard; two other groups received water orally and served as normal control and control colitis. Other groups received the tested compounds CP 1-7 at a dose 50 mg/kg and tested compound CP 8 at a dose of 100 mg/kg. Ulcerative colitis was induced by slowly infusion of 2 mL (4%, v/v) acetic acid in saline into the colon through the catheter. Two hours after the induction of colitis, animals received the 1st dose of all medication, then all groups received medication for 5 consecutive days, two hours after the last dose, animals were sacrificed by ether anesthesia, colonic segments (8 cm in length and 3 cm proximal to the anus) were excised, opened and were used for macroscopic scoring (Awaad et al., 2013).
The colonic lesions were assessed as follows. The colon specimens were weighted and wet weight/length ratio was calculated for all the rats. The specimens were examined under a dissecting microscope and the mucosal lesions were quantified by the scoring system (0-5) given by Awaad et al., (2013) after some modifications. The lesion scores were determined as follows: 0=no damage, 1=Local edema and inflammation without ulcers; 2=One ulcer without inflammation; 3=one to two ulcers with inflammation & lesion diameter <1 cm; 4=More than two ulcers with lesion diameter 1-2 cm; 5=Sever ulceration with lesion diameter >2 cm.
The ulcer area was measured using plane glass square. Each cell on the glass square was 1 mm^2 in area and the number of cells was counted and the ulcer area was determined for each colon. The ulcer index was measured by summing the lesion score and the ulcer area for each colon specimen (Awaad et al, 2013).

[4] = Table 3, protection of control ulcer, oral 100 mg/kg
[5] = Table 7, rat serum, oral 100 mg/kg, mean ± SD, n = 10
[6] = Table 7, rats, oral 100 mg/kg, mean ± SD, n = 10
[7] = rats, oral 50 mg/kg (CP 1-7) or 100 mg/kg (CP 8)
[8] = Table 2, oral, CP-1-7 50 mg/kg, ranitidine 100 mg/kg
[9] = Table 6, rat serum, oral 50 mg/kg, 6 h after last dose, mean ± SD, n = 10
[10] = Table 6, rats, oral 50 mg/kg, 6 h after last dose, mean ± SD, n = 10
[11] = Table 4, oral 5 days, CP-1-7 50 mg/kg, dexamethasone 0.1 mg/kg
[12] = Table 2, protection of control ulcer, oral, CP-1-7 50 mg/kg, ranitidine 100 mg/kg
[13] = Table 4, protection of control colitis, CP-1-7 50 mg/kg, dexamethasone 0.1 mg/kg

SMILES	melting point [°C]	score [1, 8]	ALT [2, 9] [U/l]	AST [2, 9] [U/l]	Serum Creatinine [2, 10] [mg/dL]	Wt/l [3, 11]	inhibition in vivo at 50 mg/kg [1, 12] [%]	inhibition in vivo at 50 mg/kg [3, 13] [%]	Blood Urea [2, 10] [mg/dL]	other results
NS(=O)(=O)c1ccc(NC(=O)CNc2ccccc2C(=O)O)cc1 [CP8, 2-(2-Hydroxycarbonylphenylamino)-N-(4-aminosulphonylphenyl)acetamide]										effect versus ranitidine in reducing ulcer index and ulcer score (in words) ([1]; CP8 100 mg/kg versus ranitidine 100 mg/kg): significantly more effective than the standard; inhibition in vivo at 100 mg/kg [1, 4]: 87.1%; score ([1]; Table 3, oral 100 mg/kg): 1.20; ALT [2, 5]: 39.70 ± 0.22 U/l; AST [2, 5]: 66.28 ± 0.40 U/l; Blood Urea [2, 6]: 68.60 ± 1.9 mg/dL; Creatinine [2, 6]: 0.86 ± 0.03 mg/dL; liver functions (activity of AST and ALT), hepatotoxic manifestation (in words) [2, 7]: didn't reveal hepatotoxic manifestation; nephrotoxic manifestations (in words) [2, 7]: no apparent nephrotoxic manifestations; liver and kidney functions versus control (in words) ([2]; rats, oral 100 mg/kg, 0.05 level of probability): not affected; % Protection of control colitis ([3]; dexamethasone 0.1 mg/kg): 64.2%
N#CC1(c2ccccc2)CCN(CC(=O)Nc2ccc(S(N)(=O)=O)cc2)CC1 [CP-1, 2-[(4-Cyano-4-phenyl)piperidinyl]-N-(4-aminosulphonylphenyl)acetamide]	196 to 198	3.20	35.77 ± 1.60	44.43 ± 1.57	0.88 ± 0.03	0.79 ± 0.08				inhibition in vivo at 50 mg/kg [1]: 55.5%; effect on blood urea concentration (in words) ([2]; rats, oral 50 mg/kg): slightly elevate; inhibition in vivo at 50 mg/kg [3]: 31.7%
NS(=O)(=O)c1ccc(NC(=O)CN2CCC(O)(c3ccccc3)CC2)cc1 [CP-2, 2-[(4-Hydroxy-4-phenyl)piperidinyl]-N-(4-aminosulphonylphenyl)acetamide]	221 to 223	3.20				0.74 ± 0.02	71.9	49.1		ALT ([2]; rat, in vivo, po, 50 mg/kg): 39.70 ± 0.22 U/l; AST ([2]; rat, in vivo, po, 50 mg/kg): 66.28 ± 0.40 U/l; Blood Urea ([2]; rat, in vivo, po, 50 mg/kg): 52.55 ± 1.24 mg/dL; Serum Creatinine ([2]; rat, in vivo, po, 50 mg/kg): 0.86 ± 0.03 mg/dL
NS(=O)(=O)c1ccc(NC(=O)CN2CCC(c3ccc(Cl)cc3)CC2)cc1 [CP-3, 2-[4(4-Chlorophenyl)piperidinyl]-N-(4-aminosulphonylphenyl)acetamide]	270 to 272	2.20	36.87 ± 1.28	44.16 ± 1.57		0.64 ± 0.05	90.3	64.2	46.02 ± 1.10	effect on serum creatinine (in words) ([2]; rats, oral 50 mg/kg): slightly elevated; effect versus dexamesathone in reducing all colitis parameters (in words) [3]: significantly more effective than dexamesathone
NS(=O)(=O)c1ccc(NC(=O)CN2CCC(N3CCCCC3)CC2)cc1 [CP-4, 2-[4-(1-Piperidino)piperidinyl]-N-(4-aminosulphonylphenyl)acetamide]	215 to 217	2.00	36.87 ± 1.28	44.16 ± 1.57		0.84 ± 0.02	97.7	25.3	47.96 ± 0.84	effect on serum creatinine (in words) ([2]; rats, oral 50 mg/kg): slightly elevated; score ([3]; Table 4, lesion score 0-5, oral 5 days, CP-1-7 50 mg/kg, dexamethasone 0.1 mg/kg): 3.00 ± 0.63
COc1ccc(C2CCN(CC(=O)Nc3ccc(S(N)(=O)=O)cc3)CC2)cc1 [CP-5, 2-[4(4-Methoxyphenyl)piperidinyl]-N-(4-aminosulphonylphenyl)acetamide]	175 to 177	2.40	36.35 ± 1.26	44.09 ± 1.25	0.86 ± 0.07	0.75 ± 0.02	83.6	22.3	55.92 ± 0.55	
Cc1cccc(N2CCN(CC(=O)Nc3ccc(S(N)(=O)=O)cc3)CC2)c1C [CP-6, 2-[4(2,3-Xylyl)piperazinyl]-N-(4-aminosulphonylphenyl)acetamide]	241 to 243	3.00	36.02 ± 1.58	44.7 ± 1.66	0.83 ± 0.08	0.71 ± 0.05	88.5	30.6	51.00 ± 0.89	
Cc1cc(NCC(=O)Nc2ccc(S(N)(=O)=O)cc2)c2ccccc2n1 [CP-7, 2-(2-Methylquinolin-4-ylamino)-N-(4-aminosulphonylphenyl)acetamide]	> 300	3.60	36.33 ± 1.35	46.16 ± 1.48	0.85 ± 0.09	0.49 ± 0.02	64.1	66.8	53.00 ± 0.14	effect versus dexamesathone in reducing all colitis parameters (in words) [3]: significantly more effective than dexamesathone
C[C@@H]1C[C@H]2[C@@H]3CCC4=CC(=O)C=C[C@]4(C)[C@@]3(F)[C@@H](O)C[C@]2(C)[C@@]1(O)C(=O)CO [Dexamethasone, reference compound]						0.52 ± 0.07		59.3		% Protection of control colitis ([3]; dexamethasone 0.1 mg/kg): 60%
CNC(=C[N+](=O)[O-])NCCSCc1ccc(CN(C)C)o1 [Ranitidine, ranitidine, reference compound]		2.20					49.2			inhibition in vivo at 100 mg/kg [1, 4]: 58.8%; score ([1]; Table 3, oral 100 mg/kg): 2.20
